Legend:
[1] = target: T1, Alpha-1A adrenergic receptor (Rattus norvegicus, UniProt P43140); assay: DRUGMATRIX: Alpha-1A adrenergic receptor radioligand binding (ligand: prazosin); type: cell membranes, Wistar, Submaxillary gland, Membrane; conditions: Not Active = under 50% inhibition at 10 µM; for Ki: read-out: Ki
T1 sequence (P43140 whole entry): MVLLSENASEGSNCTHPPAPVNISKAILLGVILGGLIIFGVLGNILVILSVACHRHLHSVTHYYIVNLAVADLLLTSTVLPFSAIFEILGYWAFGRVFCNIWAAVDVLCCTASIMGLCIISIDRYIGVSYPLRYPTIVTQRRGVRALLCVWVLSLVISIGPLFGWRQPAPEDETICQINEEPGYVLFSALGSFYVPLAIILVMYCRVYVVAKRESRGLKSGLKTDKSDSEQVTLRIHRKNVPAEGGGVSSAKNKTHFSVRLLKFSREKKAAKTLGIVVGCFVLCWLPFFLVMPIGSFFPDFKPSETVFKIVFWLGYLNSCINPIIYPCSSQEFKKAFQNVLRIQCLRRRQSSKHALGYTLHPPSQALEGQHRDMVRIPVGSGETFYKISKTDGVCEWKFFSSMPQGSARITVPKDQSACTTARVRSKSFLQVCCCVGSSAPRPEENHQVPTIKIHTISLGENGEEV

[2] = target: Beta-2 adrenergic receptor (Homo sapiens, UniProt P07550); assay: DRUGMATRIX: Adrenergic beta2 radioligand binding (ligand: [3H] CGP-12177); type: cell membranes, Membrane; conditions: cho; Not Active = under 50% inhibition at 10 µM
Chain of Beta-2 adrenergic receptor (P07550 whole entry): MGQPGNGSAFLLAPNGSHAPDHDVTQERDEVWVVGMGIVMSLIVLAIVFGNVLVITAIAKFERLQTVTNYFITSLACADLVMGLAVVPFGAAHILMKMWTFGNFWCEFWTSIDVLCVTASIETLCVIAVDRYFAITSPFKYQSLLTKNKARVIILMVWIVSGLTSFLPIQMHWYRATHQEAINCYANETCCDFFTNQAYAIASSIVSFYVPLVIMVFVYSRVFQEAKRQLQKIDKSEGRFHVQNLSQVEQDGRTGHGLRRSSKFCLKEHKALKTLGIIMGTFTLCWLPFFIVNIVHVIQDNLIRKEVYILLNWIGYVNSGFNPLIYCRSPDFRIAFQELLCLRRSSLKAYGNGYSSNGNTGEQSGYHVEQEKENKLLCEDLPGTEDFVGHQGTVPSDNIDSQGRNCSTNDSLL

[3] = DRUGMATRIX: beta-Lactamase enzyme inhibition (substrate: Nitrocefin); set-up: species or system Bacillus cereus; conditions: Not Active = under 50% inhibition at 10 µM
[4] = DRUGMATRIX: Sigma2 radioligand binding (ligand: [3H] Ifenprodil); type: cell membranes, Rattus norvegicus, Wistar, Brain, Membrane; conditions: Not Active = under 50% inhibition at 10 µM
[5] = target: T2, Muscarinic acetylcholine receptor M5 (Homo sapiens, UniProt P08912); type: cell membranes, CHO-K1, Membrane; conditions: for Ki: read-out: Ki; as to all read-outs here: in other assays of this panel Not Active means under 50% inhibition at 10 µM
T2 sequence (P08912 whole entry): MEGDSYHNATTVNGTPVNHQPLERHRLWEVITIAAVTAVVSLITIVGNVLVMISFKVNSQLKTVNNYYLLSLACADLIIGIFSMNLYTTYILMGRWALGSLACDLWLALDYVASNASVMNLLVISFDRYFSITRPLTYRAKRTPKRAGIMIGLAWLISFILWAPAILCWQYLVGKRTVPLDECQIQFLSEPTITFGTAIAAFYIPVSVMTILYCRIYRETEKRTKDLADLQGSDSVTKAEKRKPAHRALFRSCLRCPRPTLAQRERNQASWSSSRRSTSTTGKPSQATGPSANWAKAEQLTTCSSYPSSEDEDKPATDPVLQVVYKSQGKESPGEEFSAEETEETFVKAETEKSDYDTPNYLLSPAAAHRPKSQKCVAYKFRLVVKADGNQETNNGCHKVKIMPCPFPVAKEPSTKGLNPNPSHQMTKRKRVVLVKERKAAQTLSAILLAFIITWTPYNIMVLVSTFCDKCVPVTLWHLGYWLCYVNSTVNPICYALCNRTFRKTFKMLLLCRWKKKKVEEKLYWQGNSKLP

Nitric oxide synthase 1 = Nitric oxide synthase 1 (Rattus norvegicus, UniProt P29476); type: tissue-based, Cerebellum; also: in other assays of this panel Not Active means under 50% inhibition at 10 µM
Chain of Nitric oxide synthase 1 (P29476 whole entry): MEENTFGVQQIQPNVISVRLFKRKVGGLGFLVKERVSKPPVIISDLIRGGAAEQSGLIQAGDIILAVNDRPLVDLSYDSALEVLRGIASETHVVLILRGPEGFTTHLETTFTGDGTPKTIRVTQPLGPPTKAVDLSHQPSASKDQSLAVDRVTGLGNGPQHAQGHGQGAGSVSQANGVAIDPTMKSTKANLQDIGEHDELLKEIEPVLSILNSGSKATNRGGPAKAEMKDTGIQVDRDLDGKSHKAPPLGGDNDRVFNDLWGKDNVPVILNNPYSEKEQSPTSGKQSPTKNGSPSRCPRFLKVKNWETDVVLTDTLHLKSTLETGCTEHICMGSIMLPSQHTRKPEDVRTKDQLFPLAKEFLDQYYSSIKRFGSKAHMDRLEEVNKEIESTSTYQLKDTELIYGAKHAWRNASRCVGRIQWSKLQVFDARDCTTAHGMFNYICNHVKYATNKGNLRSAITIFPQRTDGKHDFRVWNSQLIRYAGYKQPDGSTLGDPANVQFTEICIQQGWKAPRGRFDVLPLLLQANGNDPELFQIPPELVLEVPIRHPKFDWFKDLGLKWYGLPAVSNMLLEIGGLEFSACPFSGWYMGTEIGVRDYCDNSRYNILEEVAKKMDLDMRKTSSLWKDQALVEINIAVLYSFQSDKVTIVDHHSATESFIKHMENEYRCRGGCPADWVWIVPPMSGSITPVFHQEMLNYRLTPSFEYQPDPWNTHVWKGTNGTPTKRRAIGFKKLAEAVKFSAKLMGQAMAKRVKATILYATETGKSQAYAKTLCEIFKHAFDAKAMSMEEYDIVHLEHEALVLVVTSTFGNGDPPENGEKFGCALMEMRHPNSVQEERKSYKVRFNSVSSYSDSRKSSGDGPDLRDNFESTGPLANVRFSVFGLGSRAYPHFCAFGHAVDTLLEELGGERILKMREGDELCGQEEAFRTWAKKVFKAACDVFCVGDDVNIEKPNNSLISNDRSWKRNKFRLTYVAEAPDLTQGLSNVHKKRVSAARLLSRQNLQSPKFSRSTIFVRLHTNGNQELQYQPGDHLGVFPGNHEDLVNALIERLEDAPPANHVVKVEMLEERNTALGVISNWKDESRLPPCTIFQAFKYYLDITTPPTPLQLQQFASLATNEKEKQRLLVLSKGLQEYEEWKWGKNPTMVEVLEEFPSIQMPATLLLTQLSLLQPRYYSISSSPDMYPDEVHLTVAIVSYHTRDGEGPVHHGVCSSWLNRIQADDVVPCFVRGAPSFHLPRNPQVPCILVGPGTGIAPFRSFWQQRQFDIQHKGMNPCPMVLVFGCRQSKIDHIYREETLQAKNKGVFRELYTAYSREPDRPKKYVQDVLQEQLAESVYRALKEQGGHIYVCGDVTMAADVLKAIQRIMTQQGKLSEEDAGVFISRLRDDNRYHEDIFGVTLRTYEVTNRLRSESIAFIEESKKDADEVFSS

[6] = target: Platelet-activating factor receptor (Homo sapiens, UniProt P25105); assay: biochemical; type: tissue-based; also: in other assays of this panel Not Active means under 50% inhibition at 10 µM
Chain of Platelet-activating factor receptor (P25105 whole entry): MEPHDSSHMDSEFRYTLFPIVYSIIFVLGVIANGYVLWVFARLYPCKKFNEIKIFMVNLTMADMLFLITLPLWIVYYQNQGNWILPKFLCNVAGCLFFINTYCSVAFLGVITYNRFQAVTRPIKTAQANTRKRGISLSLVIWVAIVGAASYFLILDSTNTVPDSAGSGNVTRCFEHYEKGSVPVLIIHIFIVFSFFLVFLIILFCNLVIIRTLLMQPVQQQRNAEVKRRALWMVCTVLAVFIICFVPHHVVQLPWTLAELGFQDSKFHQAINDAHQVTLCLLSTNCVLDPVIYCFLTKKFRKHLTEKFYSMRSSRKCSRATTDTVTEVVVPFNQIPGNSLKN

[7] = target: T3, Angiotensin-converting enzyme (Oryctolagus cuniculus, UniProt P12822); assay: biochemical; type: tissue-based, Lung;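 also: enzymatic inhibition of angiotensin-converting enzyme measured with FAPGG as the substrate; in other assays of this panel Not Active means under 50% inhibition at 10 µM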
T3 sequence (P12822 whole entry): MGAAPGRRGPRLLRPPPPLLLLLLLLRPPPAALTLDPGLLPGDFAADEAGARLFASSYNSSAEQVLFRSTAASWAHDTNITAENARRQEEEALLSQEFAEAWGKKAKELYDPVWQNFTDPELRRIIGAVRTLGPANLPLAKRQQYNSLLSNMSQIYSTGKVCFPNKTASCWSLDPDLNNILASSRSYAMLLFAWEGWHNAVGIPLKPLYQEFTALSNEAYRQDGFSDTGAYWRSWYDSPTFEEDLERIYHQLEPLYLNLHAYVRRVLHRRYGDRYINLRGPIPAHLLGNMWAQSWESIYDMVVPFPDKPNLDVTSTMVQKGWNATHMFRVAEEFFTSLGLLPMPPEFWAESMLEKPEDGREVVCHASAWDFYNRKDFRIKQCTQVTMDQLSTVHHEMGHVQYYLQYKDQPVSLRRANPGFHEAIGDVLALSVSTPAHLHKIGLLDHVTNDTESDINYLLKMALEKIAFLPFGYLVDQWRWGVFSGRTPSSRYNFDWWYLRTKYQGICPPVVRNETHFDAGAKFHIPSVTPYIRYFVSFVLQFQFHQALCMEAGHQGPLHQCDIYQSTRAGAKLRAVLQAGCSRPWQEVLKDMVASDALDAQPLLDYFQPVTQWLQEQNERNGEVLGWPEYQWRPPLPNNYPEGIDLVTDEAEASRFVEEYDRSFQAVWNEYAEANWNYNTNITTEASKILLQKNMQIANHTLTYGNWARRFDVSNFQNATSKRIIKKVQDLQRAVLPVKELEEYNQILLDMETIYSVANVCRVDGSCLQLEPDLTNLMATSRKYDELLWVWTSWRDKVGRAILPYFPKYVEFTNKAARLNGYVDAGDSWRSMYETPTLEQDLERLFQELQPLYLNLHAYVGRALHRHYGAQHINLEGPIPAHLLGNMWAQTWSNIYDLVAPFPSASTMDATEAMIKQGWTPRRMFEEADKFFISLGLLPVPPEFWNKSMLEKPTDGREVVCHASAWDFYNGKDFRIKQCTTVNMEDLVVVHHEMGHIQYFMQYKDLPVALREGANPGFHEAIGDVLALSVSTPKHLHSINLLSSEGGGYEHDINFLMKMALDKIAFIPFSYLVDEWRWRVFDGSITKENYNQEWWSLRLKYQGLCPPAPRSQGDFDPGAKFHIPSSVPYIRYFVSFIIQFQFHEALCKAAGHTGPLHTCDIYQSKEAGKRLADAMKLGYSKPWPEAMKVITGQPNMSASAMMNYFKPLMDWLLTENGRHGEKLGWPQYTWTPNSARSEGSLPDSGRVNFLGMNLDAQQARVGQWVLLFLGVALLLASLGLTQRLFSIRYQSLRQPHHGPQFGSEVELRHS

[8] = target: Protein phosphatase 3 catalytic subunit alpha (Homo sapiens, UniProt Q08209); set-up: species or system Escherichia coli
[9] = DRUGMATRIX: Potassium Channel [KATP] radioligand binding (ligand: [3H] Glyburide); type: cell membranes, Membrane; conditions: hit-t15; Not Active = under 50% inhibition at 10 µM

Compound	IC50 [1]	IC50 [2]	IC50 [3]	Ki [3]	IC50 [4]	Ki [4]	IC50 ([5]; cho-k1)	IC50 (Nitric oxide synthase 1)	IC50 ([6]; platelet)	IC50 [8]	IC50 [9]	Ki [9]	IC50 [7]	also measured
NCCCC[C@H](N[C@@H](CCc1ccccc1)C(=O)O)C(=O)N1CCC[C@H]1C(=O)O [LISINOPRIL ANHYDROUS]	Not Active	Not Active	Not Active	Not Active	Not Active	Not Active	Not Active	Not Active	Not Active	Not Active	–	–	–	IC50 ([7]; read-out: IC50): 6.04 nM
CN1[C@@H]2CC[C@H]1C[C@@H](OC(=O)c1c[nH]c3ccccc13)C2 [TROPISETRON]	Not Active	Not Active	Not Active	Not Active	Not Active	Not Active	–	Not Active	Not Active	Not Active	Not Active	Not Active	Not Active	IC50 ([5]; read-out: IC50): 3450 nM; Ki [5]: 2480 nM
CC(=O)[C@H]1CC[C@H]2[C@@H]3CCC4=CC(=O)CC[C@]4(C)[C@H]3CC[C@]12C [PROGESTERONE]	Not Active	Not Active	Not Active	Not Active	Not Active	Not Active	Not Active	Not Active	Not Active	Not Active	Not Active	Not Active	Not Active	–
COc1cccc(C2(O)CCCCC2CN(C)C)c1 (stereo unspecified) [TRAMADOL]	Not Active	Not Active	–	–	–	–	Not Active	Not Active	Not Active	Not Active	–	–	Not Active	–
CN(C)CCCN1c2ccccc2CCc2ccc(Cl)cc21 [CLOMIPRAMINE]	–	Not Active	–	–	–	–	–	Not Active	Not Active	Not Active	–	–	Not Active	IC50 ([5]; read-out: IC50): 53 nM; Ki [5]: 38 nM
CC(C)(O)c1ccccc1CC[C@@H](SCC1(CC(=O)O)CC1)c1cccc(/C=C/c2ccc3ccc(Cl)cc3n2)c1 [MONTELUKAST]	Not Active	–	–	–	–	–	–	Not Active	Not Active	Not Active	–	–	Not Active	–
Clc1ccccc1C(c1ccccc1)(c1ccccc1)n1ccnc1 [CLOTRIMAZOLE]	–	–	–	–	–	–	–	Not Active	–	Not Active	–	–	Not Active	IC50 ([1]; read-out: IC50): 26300 nM; Ki [1]: 10700 nM; IC50 ([6]; read-out: IC50): 35000 nM; Ki ([6]; read-out: Ki): 22600 nM
CSc1ccc2c(c1)N(CCC1CCCCN1C)c1ccccc1S2 (stereo unspecified) [THIORIDAZINE]	–	Not Active	–	–	–	–	–	Not Active	Not Active	Not Active	–	–	Not Active	IC50 ([1]; read-out: IC50): 5.09 nM; Ki [1]: 2.06 nM
COc1ccc(CCN2CCC(Nc3nc4ccccc4n3Cc3ccc(F)cc3)CC2)cc1 [ASTEMIZOLE]	–	Not Active	–	–	–	–	–	Not Active	Not Active	Not Active	–	–	Not Active	IC50 ([1]; read-out: IC50): 24 nM; Ki [1]: 9.9 nM; IC50 ([5]; read-out: IC50): 703 nM; Ki [5]: 505 nM
COC(=O)[C@@H]1[C@H]2C[C@H]3c4[nH]c5ccccc5c4CCN3C[C@@H]2CC[C@@H]1O [YOHIMBINE]	–	Not Active	Not Active	Not Active	Not Active	Not Active	Not Active	Not Active	Not Active	Not Active	Not Active	Not Active	Not Active	–
CC(C)(C)NCC(O)c1ccc(O)c(CO)c1 (stereo unspecified) [ALBUTEROL]	Not Active	–	Not Active	Not Active	Not Active	Not Active	Not Active	Not Active	Not Active	Not Active	Not Active	Not Active	Not Active	–
CC(CCc1ccccc1)NCC(O)c1ccc(O)c(C(N)=O)c1 (stereo unspecified) [LABETALOL]	–	–	Not Active	Not Active	–	–	Not Active	Not Active	Not Active	Not Active	Not Active	Not Active	Not Active	IC50 ([1]; read-out: IC50): 57 nM; Ki [1]: 23 nM; IC50 ([4]; read-out: IC50): 2820 nM; Ki ([4]; read-out: Ki): 1730 nM
CC(C)(C)NCC(O)c1cc(O)cc(O)c1 (stereo unspecified) [TERBUTALINE]	Not Active	–	Not Active	Not Active	Not Active	Not Active	Not Active	Not Active	Not Active	Not Active	Not Active	Not Active	Not Active	–
O=C(CCCN1CCC(O)(c2ccc(Cl)cc2)CC1)c1ccc(F)cc1 [HALOPERIDOL]	–	Not Active	–	–	–	–	–	Not Active	Not Active	Not Active	–	–	Not Active	–
CN1CCN2c3ccccc3Cc3ccccc3C2C1 (stereo unspecified) [MIANSERIN]	–	Not Active	–	–	–	–	–	Not Active	Not Active	Not Active	–	–	Not Active	IC50 ([5]; read-out: IC50): 320 nM; Ki [5]: 230 nM
